Test results taken from patent US9206200B2, “N-linked lactam M1 receptor positive allosteric mogulators” (Merck Sharp & Dohme Corp., priority 2011, dated 2015).

target: T1, acetylcholine muscarinic M1 receptor (Homo sapiens, UniProt P11229); test: muscarinic FLIPR assay: intracellular calcium in CHOnfat/hM1 cells, potentiation of EC20 acetylcholine; type: cell-based; details: Table 1; CHOnfat/hM1 cells, FLIPR, EC20 acetylcholine (3 nM final); read-out: M1 Pot.
T1 construct: expressed in transfected cells; host or cells: CHOnfat cells (CHO cells with an NFAT reporter) expressing hM1, kept under Geneticin selection
T1 sequence (P11229 1-460): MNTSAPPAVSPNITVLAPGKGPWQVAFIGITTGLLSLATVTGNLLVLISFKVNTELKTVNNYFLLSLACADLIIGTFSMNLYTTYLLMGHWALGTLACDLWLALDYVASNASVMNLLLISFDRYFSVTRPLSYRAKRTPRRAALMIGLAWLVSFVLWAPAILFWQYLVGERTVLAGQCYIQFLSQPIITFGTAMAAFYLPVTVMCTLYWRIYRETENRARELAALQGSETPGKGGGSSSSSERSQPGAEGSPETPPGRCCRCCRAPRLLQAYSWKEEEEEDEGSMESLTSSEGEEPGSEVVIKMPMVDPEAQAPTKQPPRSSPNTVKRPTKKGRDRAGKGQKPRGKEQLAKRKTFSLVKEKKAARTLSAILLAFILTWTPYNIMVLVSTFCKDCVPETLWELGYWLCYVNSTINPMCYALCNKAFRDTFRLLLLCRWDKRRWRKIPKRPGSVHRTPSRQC
Procedure: The assay studies the effect of one or several concentrations of test compounds on basal or acetylcholine-stimulated Ca^2+ levels using FLIPR.
Compounds are prepared and subjected to a preincubation period of […]. Thereafter, a single EC20 concentration of acetylcholine is added to each well (3 nM final). The intracellular Ca^2+ level of each sample is measured and compared to an acetylcholine control to determine any modulatory activity.
Cells: CHOnfat/hM1, hM2, hM3 or hM4 cells are plated 24 hr before the assay at a density of 18,000 cells/well (100 μL) in a 384 well plate. CHOnfat/hM1 and CHOnfat/hM3 Growth Medium: 90% DMEM (Hi Glucose); 10% HI FBS; 2 mM L-glutamine; 0.1 mM NEAA; Pen-Strep; and 1 mg/ml Geneticin, are added. For M2Gqi5CHOnfat and M4Gqi5CHOnfat cells, an additional 600 ug/ml hygromycin is added.
Equipment: 384 well plate, 120 μl, addition plate; 96-well Whatman 2 ml Uniplate Incubator, 37° C., 5% CO2; Skatron EMBLA-384 Plate Washer; Multimek Pipetting System; Genesis Freedom 200 System; Mosquito System; Temo Nanolitre Pipetting System; and FLIPR^384 Fluorometric Imaging Plate Reader System are used.
Buffers. Assay Buffer: Hanks Balanced Salt Solution, with 20 mM Hepes, 2.5 mM Probenecid (Sigma P-8761) first dissolved in 1 N NaOH, 1% Bovine Serum Albumin (Sigma A-9647). Dye Loading Buffer: Assay Buffer plus 1% Fetal Bovine Serum and Fluo-4AM/Pluronic Acid Mixture. 2 mM Fluo-4AM ester stock in DMSO (Molecular Probes F-14202) Concentration of 2 μM in buffer for a final concentration of 1 μM in Assay. 20% Pluronic Acid Solution stock, with concentration of 0.04% in Buffer, 0.02% in Assay.
65 μL of 2 mM Fluo-4AM are mixed with 130 μL of 20% Pluronic Acid. The resulting solution and 650 μL FBS is added to the assay buffer for a total volume of 65 mL. Positive Controls: 4-Br-A23187: 10 mM in DMSO; final concentration 10 μM. Acetylcholine: 10 mM in water, working stock at both 20 μM and 30 μM in assay buffer, final concentration of 10 μM. This is used to check the maximum stimulation of the CHOK1/hM1 cells. 20 μM (2×) acetylcholine is added in the preincubation part of the assay, and the 30 μM (3×) stock is added in the second part. (EC20)Acetylcholine: 10 mM in water, working stock of 9 nM (3×), and final concentration in assay is 3 nM. This is used after the preincubation with test compounds. Addition of the EC20 Acetylcholine to each well with a test compound will ascertain any modulator activity. 24 wells contain 3 nM Acetylcholine alone as a control.
Determining Activity of Putative Compounds:
Screening Plate Compounds are titrated in 96-well plates (columns 2-11), 100% DMSO, started at a concentration of 15 mM (150× stock concentration), and 3-fold serial dilutions using Genesis Freedom200 System. Four 96-well plates are combined into a 384-well plate using Mosquito Nanolitre Pipetting System by transferring 1 μl of serial diluted compounds to each well, and 1 mM acetylcholine (100× stock concentration) were added as a control. Using Temo, 49 μl assay buffer is added to each well of the 384-well plate right before assay.
In a 96-well Whatman 2 ml Uniplate, 9 nM Acetylcholine (3×) is pipetted into wells corresponding to the screening compounds, and into control wells. The 30 μM acetylcholine control (3×) is added into control wells, and the 3× agonist plate is transferred into a 384 well plate.
Cells are washed three times with 100 μL of buffer, leaving […] of buffer in each well. Using Multimek, 30 μL of Dye Loading Buffer is added into each well and incubated at 37° C., 5% CO2 for up to one hr.
After 60 min, the cells are washed three times with 100 μL of buffer, leaving 30 μL of buffer in each well. The cell plate, screening plate, and agonist addition plates are placed on the platform in the FLIPR and the door closed. A signal test to check background fluorescence and basal fluorescence signal is performed. Laser intensity is adjusted if necessary.

SMILES | EC50
CN1CCN(Cc2cc3c(c4ccccc24)CN([C@H]2CCCC[C@@H]2O)C3=O)CC1=O [Example 13, 2-[(1S,2S)-2-hydroxycyclohexyl]-5-[(4-methyl-3-oxopiperazin-1-yl)methyl]-1,2-dihydro-3H-benzo[e]isoindol-3-one] | 560 nM
O=C1c2cc(CN3CCC(F)(F)C3)c3ccccc3c2CN1C1CCCCC1O (stereo not drawn) [Example 33, 5-[(3,3-difluoropyrrolidin-1-yl)methyl]-2-(2-hydroxycyclohexyl)-1,2-dihydro-3H-benzo[e]isoindol-3-one] | 240 nM
O=C1c2cc(CN3CCN(c4ccccn4)CC3)c3ccccc3c2CN1[C@H]1CCCC[C@@H]1O [Example 74, 2-[(1S,2S)-2-hydroxycyclohexyl]-5-[(4-pyridin-2-ylpiperazin-1-yl)methyl]-1,2-dihydro-3H-benzo[e]isoindol-3-one] | 46 nM
N#CC1(c2ccccn2)CCN(Cc2cc3c(c4ccccc24)CN([C@@H]2CCCC[C@H]2O)C3=O)CC1 [Example 46, 1-({2-[(1R,2R)-2-hydroxycyclohexyl]-3-oxo-2,3-dihydro-1H-benzo[e]isoindol-5-yl}methyl)-4-pyridin-2-ylpiperidine-4-carbonitrile] | 539 nM
O=C1c2cc(CN3CCC(c4ccncc4)CC3)c3ccccc3c2CN1C1CCCCC1O (stereo not drawn) [Example 42, 2-(2-hydroxycyclohexyl)-5-[(4-(4-pyridinyl)piperidin-1-yl)methyl]-1,2-dihydro-3H-benzo[e]isoindol-3-one] | 240 nM

same assay, conditions: Table 2; CHOnfat/hM1 cells, FLIPR, EC20 acetylcholine (3 nM final); read-out: M1 Pot.

SMILES | EC50
O=C1c2cc(CN3CCC(O)CC3)c3cccnc3c2CN1C1CCCCC1O (stereo not drawn) [Example 89, 8-(2-hydroxycyclohexyl)-5-[(4-hydroxypiperidin-1-yl)methyl]-8,9-dihydro-7H-pyrrolo[3,4-h]quinolin-7-one] | 290 nM
O=C1c2cc(CN3CCC(c4ccncc4)CC3)c3cccnc3c2CN1C1CCCCC1O (stereo not drawn) [Example 142, 8-(2-hydroxycyclohexyl)-5-[(4-pyridin-4-ylpiperidin-1-yl)methyl]-8,9-dihydro-7H-pyrrolo[3,4-h]quinolin-7-one] | 51 nM
N#CC1CCN(Cc2cc3c(c4ncccc24)CN([C@H]2CCCC[C@@H]2O)C3=O)CC1 [Example 92, 1-({8-[(1S,2S)-2-hydroxycyclohexyl]-7-oxo-8,9-dihydro-7H-pyrrolo[3,4-h]quinolin-5-yl}methyl)piperidine-4-carbonitrile] | 72 nM
N#CC1(F)CCN(Cc2cc3c(c4ncccc24)CN([C@H]2CCCC[C@@H]2O)C3=O)CC1 [Example 117, 4-fluoro-1-({8-[(1S,2S)-2-hydroxycyclohexyl]-7-oxo-8,9-dihydro-7H-pyrrolo[3,4-h]quinolin-5-yl}methyl)piperidine-4-carbonitrile] | 38 nM
O=C1c2cc(CN3CCC(C(F)(F)F)CC3)c3cccnc3c2CN1C1CCCCC1O (stereo not drawn) [Example 123, 8-(2-hydroxycyclohexyl)-5-{[4-(trifluoromethyl)piperidin-1-yl]methyl}-8,9-dihydro-7H-pyrrolo[3,4-h]quinolin-7-one] | 97 nM
C#CC1(F)CCN(Cc2cc3c(c4ncccc24)CN(c2cccc(O)c2)C3=O)CC1 [Example 128, 5-[(4-ethynyl-4-fluoropiperidin-1-yl)methyl]-8-(3-hydroxyphenyl)-8,9-dihydro-7H-pyrrolo[3,4-h]quinolin-7-one] | 843 nM
CC1c2c(cc(CN3CCC(c4ccccc4)CC3)c3cccnc23)C(=O)N1C1CCCCC1O (stereo not drawn) [Example 141, 8-(2-hydroxycyclohexyl)-9-methyl-5-[(4-phenylpiperidin-1-yl)methyl]-8,9-dihydro-7H-pyrrolo[3,4-h]quinolin-7-one] | 490 nM
CC#CC1(F)CCN(Cc2cc3c(c4ncccc24)CN([C@H]2CCCC[C@@H]2O)C3=O)CC1 [Example 131, 5-[(4-fluoro-4-prop-1-yn-1-ylpiperidin-1-yl)methyl]-8-[(1S,2S)-2-hydroxycyclohexyl]-8,9-dihydro-7H-pyrrolo[3,4-h]quinolin-7-one] | 33 nM
CC1c2c(cc(CN3CCN(c4ccccn4)CC3)c3cccnc23)C(=O)N1C1CCCCC1O (stereo not drawn) [Example 167, 8-(2-hydroxycyclohexyl)-9-methyl-5-[(4-pyridin-2-ylpiperazin-1-yl)methyl]-8,9-dihydro 7H-pyrrolo[3,4-h]quinolin-7-one] | 59 nM
O=C1c2cc(CN3CCC(F)CC3)c3cccnc3c2CN1C1CCCCC1O (stereo not drawn) [Example 91, 5-[(4-fluoropiperidin-1-yl)methyl]-8-(2-hydroxycyclohexyl)-8,9-dihydro-7H-pyrrolo[3,4-h]quinolin-7-one] | 88 nM
N#CC1(Cc2ccncc2)CCN(Cc2cc3c(c4ncccc24)CN(C2CCCCC2O)C3=O)CC1 (stereo not drawn) [Example 135, 1-{[8-(2-hydroxycyclohexyl)-7-oxo-8,9-dihydro-7H-pyrrolo[3,4-h]quinolin-5-yl]methyl}-4-(pyridin-4-ylmethyl)piperidine-4-carbonitrile] | 156 nM
O=C1c2cc(CN3CCC(F)(F)C3)c3cccnc3c2CN1C1CCCCC1O (stereo not drawn) [Example 98, 5-[(3,3-difluoropyrrolidin-1-yl)methyl]-8-(2-hydroxycyclohexyl)-8,9-dihydro-7H-pyrrolo[3,4-h]quinolin-7-one] | 151 nM
O=C1c2cc(CN3CCN(c4ccccn4)CC3)c3cccnc3c2CN1C1CCCCC1O (stereo not drawn) [Example 165, 8-(2-hydroxycyclohexyl)-5-[(4-pyridin-2-ylpiperazin-1-yl)methyl]-8,9-dihydro-7H-pyrrolo[3,4-h]quinolin-7-one] | 15 nM
O=C1c2cc(CN3CCC(C4CC4)CC3)c3cccnc3c2CN1C1CCCCC1O (stereo not drawn) [Example 90, 5-[(4-cyclopropylpiperidin-1-yl)methyl]-8-(2-hydroxycyclohexyl)-8,9-dihydro-7H-pyrrolo[3,4-h]quinolin-7-one] | 1200 nM
CC1c2c(cc(CN3CCN(c4ccc(F)cc4)CC3)c3cccnc23)C(=O)N1C1CCCCC1O (stereo not drawn) [Example 172, 5-{[4-(4-fluorophenyl)piperazin-1-yl]methyl}-8-(2-hydroxycyclohexyl)-9-methyl-8,9-dihydro-7H-pyrrolo[3,4-h]quinolin-7-one] | 480 nM

same assay, conditions: Table 3; inflection point calculated from the FLIPR values; EC20 acetylcholine (3 nM final); read-out: IP Value

SMILES | EC50
O=C1c2cc(CN3CCC(F)(F)CC3)c3cccnc3c2CN1[C@H]1COCC[C@@H]1O [Example 8, 1,5-Anhydro-2,4-dideoxy-2-{5-[(4,4-difluoropiperidin-1-yl)methyl]-7-oxo-7,9-dihydro-8H-pyrrolo[3,4-h]quinolin-8-yl}-L-threo-pentitol] | 41 nM
